Data taken from patent US10973932B2, “Preclinical model of neonatal necrotizing enterocolitis” (University of South Florida, priority 2017, dated 2021).

Tests used:
[1] = tested on: monocytes and macrophages; experiment: Depletion of intestinal monocytes/macrophages (flow cytometry); type: in vivo, mouse; conditions: CSF1R-DTR/mCherry×Lyz2-cre pups; 5 ng/g weight; FIG. 7E
Method: Flow cytometry: Macrophages were defined by flow cytometry (BD LSRII, Franklin Lakes, N.J.). Intestinal tissue was washed with Hanks' balanced-salt solution (HBSS) containing 1 mM DTT (Sigma) to remove mucus, and then treated first with HBSS containing 1 mM EDTA (Sigma)×20 min at 37° C., and then with HBSS containing 1 mM collagenase type IV (Sigma)×2 hrs at 37° C. Cell suspension was stained using established protocols with the L-D viability dye (ThermoFisher), lineage cocktail (BioLegend, San Diego, Calif.), and antibodies against CD11b, Ly6C, F4/80, Ly6G, and Ly6B (BioLegend).
Murine intestinal macrophages: Murine intestinal macrophages were isolated by immunomagnetic separation, where these cells were first stained with phycoerythrin (PE)-conjugated anti-CD11b, anti-F4/80, and anti-Ly6C antibodies and then separated using anti-PE-conjugated ferromagnetic beads (Miltenyi Biotec, San Diego, Calif.). In some experiments, monocytes and macrophages were depleted by administering clodronate liposomes (Clodrosome, Brentwood, Tenn.). A 50 mg/kg intraperitoneal dose was used and an identical dose by enema on postnatal day 8, which depleted >80% monocytes and macrophages in 72 hrs (pre-determined optimum).
These findings were confirmed using a second, more specific approach for macrophage depletion. […]

[2] = tested on: anemic-transfused mice; experiment: RBC transfusion-associated NEC-like injury in anemic-transfused mouse pups; type: in vivo
Method: Experimental design: Animal studies were approved by the Institutional Animal Care and Use Committee. C57BL/6 mice pups were studied in 4 groups: (a) naïve control; (b) transfusion control; (c) anemic control; and (d) anemic-transfused mice. Naïve controls were maintained without intervention. Transfusion controls received an intravenous RBC transfusion (20 mL/kg into the retro-orbital venous plexus, injected in 2 aliquots on each side) on postnatal day 11 (P11). RBCs for transfusion were collected in a sterile fashion from adult FVB/NJ donors after sacrifice into citrate-phosphate-dextrose-adenine-1 (CPDA-1; Sigma, St. Louis, Mo.; 6 parts blood: 1 part CPDA-1). […] Hematocrits and RBC indices were measured at each phlebotomy and then everyday on P11-13; 5 μL blood was diluted 1:20 in Cellpak reagent (Sysmex, Kobe, Japan) and analyzed in the Sysmex XT-2000iV automated veterinary hematology analyzer. […] To measure gut barrier function, FITC-dextran was administered by gavage (10 kDa, 400 mg/kg) 4 hrs before sacrifice and measured the FITC fluorescence signal in plasma samples obtained just prior to sacrifice. To measure regional blood flow, […] fluorescence-labeled microspheres were administered intravenously (15 μm, ThermoFisher, Waltham, Mass.) 1 hr before sacrifice and the fluorescence signal was measured in tissue lysates. […]

[3] = tested on: NF-κB; experiment: NF-κB reporter RAW264.7 macrophages stimulated with 7-day-stored RBCs; type: cell-based, murine; conditions: haptoglobin 10 μg/mL added with 7-day RBCs; FIG. 5H

With diphtheria toxin the “inflammatory F4/80mid CD115+Ly6Chi macrophages (not resident macrophages)” value [1] was “selectively depleted” and the “transfusion-associated NEC-like injury (onset, severity of bowel injury)” value ([2]; CSF1R-DTR/mCherry×Lyz2-cre anemic-transfused pups, 5 ng/g weight, FIGS. 7E-7G) was “protective”.

B1: recombinant haptoglobin: recombinant haptoglobin, a natural chelator of free hemoglobin (protein, UniProt P00738 19-406, looked up)
Haptoglobin: VDSGNDVTDIADDGCPKPPEIAHGYVEHSVRYQCKNYYKLRTEGDGVYTLNDKKQWINKAVGDKLPECEADDGCPKPPEIAHGYVEHSVRYQCKNYYKLRTEGDGVYTLNNEKQWINKAVGDKLPECEAVCGKPKNPANPVQRILGGHLDAKGSFPWQAKMVSHHNLTTGATLINEQWLLTTAKNLFLNHSENATAKDIAPTLTLYVGKKQLVEIEKVVLHPNYSQVDIGLIKLKQKVSVNERVMPICLPSKDYAEVGRVGYVSGWGRNANFKFTDHLKYVMLPVADQDQCIRHYEGSTVPEKKTPKSPVGVQPILNEHTFCAGMSKYQEDTCYGDAGSAFAVHDLEEDTWYATGILSFDKSCAVAEYGVYVKVTSIQDWVQKTIAEN
With B1 the “inflammatory effect of 7-day-stored RBC units on macrophages (relative NF-κB activity)” value [3] was “reversed” and the “transfusion-associated NEC-like injury (onset, severity of bowel injury)” value ([2]; intravenous 10 μg/g body weight 1 hr before transfusion, FIGS. 5I-5J) was “protective”.
